Results from patent US8378100B2, “Phosphonate derivatives as autotaxin inhibitors” (University of Virginia Patent Foundation, priority 2008, dated 2013).

Target: recombinant human ATX (Homo sapiens, UniProt Q13822)
Experiment: Choline detection assay for ATX
Format: biochemical
Conditions: Table 1 (f1-f34), activity without test compound = 100%; for ATX activity (%) 1 μM: 1 μM test compound; for ATX activity (%) 10 Mm: 10 μM test compound as printed; for ATX activity (%) 100 μM: 100 μM test compound
Protocol: The phosphonate derivatives were tested in choline detection assay for ATX inhibition. The ATX activity assay was conducted in 0.1 ml, buffer: (in mM: Tris-HCl 100, pH9, NaCl 150, MgCl2 5, CoSO4 0.03, 0.05% Triton X-100), 1 mM 18:1 LPC, using recombinant human ATX with or without test compounds; incubation was for 16 hours at 37° C. The released choline was detected as follows: Samples were mixed with 0.15 ml of 50 mM TrisHCl containing 2.7 mM TOOS(N-ethyl-N-2-hydroxy-3-sulfopropyl)-m-toluidine, 2.7 mM 4-AAP (4-aminoantipyrine), 47.7 U/ml horseradish peroxidase, 18 U/ml choline oxidase, and 5 mM MgCl2. After 30 min incubation at 37° C., light absorbance (550 nm) was determined, and the amount of choline release was calculated from a standard curve.
The ATX activity was measured in the presence of the test compounds under different concentrations (100 μM, 10 μM and 1 μM). The ATX activity without TEST compounds was used as the standard (100% activity). Some β-hydroxy phosphonate derivatives inhibited ATX activity at only the highest concentration tested. […] These two compounds were synthesized from protected L-tyrosine and they are diastereomers. The less polar isomer, f17, (also known as VPC8a202) was able to inhibit 73% of ATX activity at 1 μM.

ATX activity (%) 1 μM	ATX activity (%) 10 Mm	ATX activity (%) 100 μM	Compound
100%	100%	83%	CCCCCCCCCCCCCCCC(=O)N[C@@H](Cc1ccc(OCCC)cc1)C(O)CP(=O)(O)O (single isomer, unassigned) [f26]
86%	82%	70%	CCCCCCCCCCCCCCCC(=O)N[C@H](Cc1ccc(OCCCCC)cc1)C(O)CP(=O)(O)O (single isomer, unassigned) [f28]

Compound	ATX activity (%) 1 μM	ATX activity (%) 10 Mm	ATX activity (%) 100 μM
CCCCCCCCCCCCCCCC(=O)N[C@H](Cc1ccc(OCc2ccccc2)cc1)C(O)CP(=O)(O)O (single isomer, unassigned) [f9]	103%	76%	60%
